From publication PMC8655237 (Journal of Advanced Research, 2021)
Where two headings read alike, the source gives them in different places.

Columns and labels:
[1] = target: T1, COX-2 (Homo sapiens, UniProt P35354); test: cell-based; conditions: IC50 COX-2, cell based
T1 sequence (P35354 18-604): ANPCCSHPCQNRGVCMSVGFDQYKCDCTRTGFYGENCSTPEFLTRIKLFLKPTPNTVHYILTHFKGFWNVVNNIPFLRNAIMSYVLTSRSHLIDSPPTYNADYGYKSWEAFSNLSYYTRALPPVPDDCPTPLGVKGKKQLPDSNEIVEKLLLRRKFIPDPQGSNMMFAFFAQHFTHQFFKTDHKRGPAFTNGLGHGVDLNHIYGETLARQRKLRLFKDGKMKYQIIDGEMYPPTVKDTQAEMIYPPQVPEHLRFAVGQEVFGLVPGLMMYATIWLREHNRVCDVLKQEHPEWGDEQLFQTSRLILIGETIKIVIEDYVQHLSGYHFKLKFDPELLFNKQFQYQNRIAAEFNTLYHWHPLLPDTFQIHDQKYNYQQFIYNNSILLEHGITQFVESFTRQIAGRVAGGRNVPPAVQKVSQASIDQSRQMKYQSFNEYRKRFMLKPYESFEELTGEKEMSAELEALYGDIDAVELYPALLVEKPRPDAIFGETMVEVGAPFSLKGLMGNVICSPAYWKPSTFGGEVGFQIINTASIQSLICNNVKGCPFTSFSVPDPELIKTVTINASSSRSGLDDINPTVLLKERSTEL

[2] = test system: A549; test: NRU antiproliferative assay; type: cell-based; conditions: Homo sapiens, A549, 24 h, read-out: IC50 (NRU)
[3] = test system: mTOR; test: mTOR quantification by ELISA in A431 cells; type: cell-based, human; conditions: A431, 100 µM, 24 h
[4] = test system: A431; test: MTT antiproliferative assay; type: cell-based; conditions: Homo sapiens, A-431, 24 h, read-out: IC50 (MTT)
[5] = target: tubulin protein (Sus scrofa, UniProt P02550+P02554); test: Tubulin polymerization assay; type: biochemical; conditions: 100 μM
[6] = test system: LOX-5 mRNA; test: Real-time qPCR expression analysis; type: cell-based, human; conditions: GAPDH internal control
[7] = test system: CAT D mRNA; test: Real-time qPCR expression analysis; type: cell-based, human; conditions: GAPDH internal control
[8] = test system: MDA-MB-231; test: NRU antiproliferative assay; type: cell-based; conditions: Homo sapiens, MDA-MB-231, 24 h, read-out: IC50 (NRU)
[9] = test system: FaDu; test: MTT antiproliferative assay; type: cell-based; conditions: Homo sapiens, 24 h, read-out: IC50 (MTT)
[10] = ref https://chem.nlm.nih.gov/chemidplus/rn/3623–51-6; cited from earlier work
[11] = test system: hyaluronidase (HYAL); test: Hyaluronidase assay, cell-based; parameters: species or system human
[12] = test system: panel of organ-specific human cancer and normal cell lines; test: Antiproliferative activity over the cell line panel; type: cell-based; conditions: read-out: IC50 range in all the tested assay systems
[13] = test system: MDA-MB-231; test: Cell cycle analysis by flow cytometry; type: cell-based, human; conditions: MDA-MB-231, 24 h
[14] = test system: HEK-293; test: Cytotoxicity to normal cell line; type: cell-based, human; conditions: higher tested concentration (100 µM)
[15] = test system: HYAL mRNA; test: Real-time qPCR expression analysis; type: cell-based, human; conditions: GAPDH internal control
[16] = target: Cathepsin D (CATD) (Homo sapiens, UniProt P07339); test: Cathepsin D assay, cell-based; conditions: IC50 CAT D
[17] = test system: A431 cells; test: DCFH-DA ROS assay; type: cell-based, human; conditions: A431, highest concentration, 24 h, spectrofluorometer
[18] = test system: K562; test: Cell cycle analysis by flow cytometry; type: cell-based, human; conditions: K562, 24 h

Chain of Cathepsin D (CATD) (P07339 65-412): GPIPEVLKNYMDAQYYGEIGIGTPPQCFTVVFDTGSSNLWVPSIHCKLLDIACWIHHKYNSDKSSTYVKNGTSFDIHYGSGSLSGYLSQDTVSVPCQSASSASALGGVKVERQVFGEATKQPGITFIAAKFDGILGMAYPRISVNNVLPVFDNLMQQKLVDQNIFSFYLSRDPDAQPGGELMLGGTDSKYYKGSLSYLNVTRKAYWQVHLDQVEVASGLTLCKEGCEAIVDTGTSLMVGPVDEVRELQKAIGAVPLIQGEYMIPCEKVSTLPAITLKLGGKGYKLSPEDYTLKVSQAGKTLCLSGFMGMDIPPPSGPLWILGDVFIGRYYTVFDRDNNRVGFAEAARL
Chain of tubulin protein (P02550 whole entry): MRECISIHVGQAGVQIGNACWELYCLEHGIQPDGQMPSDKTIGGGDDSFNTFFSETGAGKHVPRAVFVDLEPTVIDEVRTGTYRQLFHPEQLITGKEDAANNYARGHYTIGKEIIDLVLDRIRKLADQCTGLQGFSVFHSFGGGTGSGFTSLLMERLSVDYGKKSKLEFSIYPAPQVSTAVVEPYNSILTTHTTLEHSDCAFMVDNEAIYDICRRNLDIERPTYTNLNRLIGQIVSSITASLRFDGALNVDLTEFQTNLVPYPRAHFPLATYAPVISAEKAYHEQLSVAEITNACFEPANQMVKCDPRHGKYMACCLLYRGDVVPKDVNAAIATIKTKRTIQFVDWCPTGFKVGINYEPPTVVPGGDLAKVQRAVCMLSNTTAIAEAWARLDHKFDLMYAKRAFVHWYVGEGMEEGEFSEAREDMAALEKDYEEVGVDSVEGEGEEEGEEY
Chain of tubulin protein (P02554 whole entry): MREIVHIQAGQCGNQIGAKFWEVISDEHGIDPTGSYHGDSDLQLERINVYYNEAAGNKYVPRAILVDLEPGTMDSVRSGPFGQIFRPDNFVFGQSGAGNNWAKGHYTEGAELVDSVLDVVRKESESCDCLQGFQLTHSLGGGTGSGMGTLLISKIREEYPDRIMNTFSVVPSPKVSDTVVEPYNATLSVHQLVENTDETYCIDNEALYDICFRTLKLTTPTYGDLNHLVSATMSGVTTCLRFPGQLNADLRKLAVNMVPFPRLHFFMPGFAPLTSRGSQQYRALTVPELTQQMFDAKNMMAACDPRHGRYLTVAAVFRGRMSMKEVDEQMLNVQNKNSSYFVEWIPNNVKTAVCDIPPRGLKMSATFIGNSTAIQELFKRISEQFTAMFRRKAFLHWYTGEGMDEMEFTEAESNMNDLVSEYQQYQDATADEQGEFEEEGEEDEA

## CC(C)[C@@H]1CC[C@@H](C)C[C@@H]1O [neomenthol, (+)-Neomenthol]
[1]; A431
  IC50: 39.1 ± 6.39 µM
[1]; FaDu
  IC50: 87.2 ± 5.24 µM
[1]; PC-3
  IC50: 62.2 ± 10.7 µM
[2]
  IC50: 48.1 ± 4.97 µM
[3]
  mTOR level (ng/mg of protein): 0.336 ± 0.108 ng/mg
[4]
  IC50: 17.3 ± 6.49 µM
[5]
  effect on tubulin polymerization: inhibit the polymerization of α and β tubulin
[6]; A431, with respect to control
  LOX-5 mRNA expression level: 1.25 fold change
[6]; FaDu, with respect to control
  LOX-5 mRNA expression level: 1.26 fold change
[6]; K562, with respect to control
  LOX-5 mRNA expression level: 1.10 fold change
[7]; A431, with respect to control
  CAT D mRNA expression level: 1.19 fold change
[7]; A549, with respect to control
  CAT D mRNA expression level: 1.37 fold change
[7]; FaDu, with respect to control
  CAT D mRNA expression level: 1.31 fold change
[7]; K562, with respect to control
  CAT D mRNA expression level: 1.24 fold change
[7]; MDA-MB-231, with respect to control
  CAT D mRNA expression level: 1.15 fold change
[7]; PC-3, with respect to control
  CAT D mRNA expression level: 1.35 fold change
[8]
  IC50: 34.7 ± 9.96 µM
[9]
  IC50: 99.31 ± 0.59 µM
[10]
  LD50: 4000 mg/kg
[11]; read-out: IC50 HYAL, A431
  IC50: 12.81 ± 0.01 µM
[11]; read-out: IC50 HYAL, A549
  IC50: 36.8 ± 5.65 µM
[12]
  IC50: 16.4 to 99.3 µM
[13]
  cell cycle phase arrested: arrests the S-phase
[14]
  cytotoxicity to HEK-293: non-cytotoxic
[15]; A431, with respect to control
  HYAL mRNA expression level: 1.52 fold change
[15]; FaDu, with respect to control
  HYAL mRNA expression level: 1.06 fold change
[15]; PC-3, with respect to control
  HYAL mRNA expression level: 1.37 fold change
[16]; A549
  IC50: 62 ± 2.08 µM
[16]; FaDu
  IC50: 74.62 ± 0.21 µM
[16]; K562
  IC50: 57.5 ± 14 µM
[17]
  percent increase in the ROS level: 20.45 ± 0.35%
[18]
  cell cycle phase arrested: arrest of the G0/G1 phase
